Earlier results on one compound are cited in patent US8362260B2, “Crystalline forms of dexlansoprazole” (Dipharma Francis S.r.l., priority 2009, dated 2013).

The conditions of the data set: in vivo.

On to `Cc1c(OCC(F)(F)F)ccnc1C[S@@+]([O-])c1nc2ccccc2[nH]1` [Dexlansoprazole in amorphous form, (R)-2-[[[3-methyl-4(2,2,2-trifluoroethoxy)-2-piridyl]methyl]sulphinyl]benzimidazole], for which the bioavailability result was “greater bioavailability”.
